Earlier results in patent publication US10052339B2, “Methods and compositions for treating symptoms of diseases related to imbalance of essential fatty acids” (BODYBIO INC, priority 2014, dated 2018).

Key:
CB1 cannabinoid receptor = CB1 cannabinoid receptor (Homo sapiens, UniProt P21554)
CB2 receptor = CB2 receptor (Homo sapiens, UniProt P34972)
Sequence of CB2 receptor (P34972 whole entry): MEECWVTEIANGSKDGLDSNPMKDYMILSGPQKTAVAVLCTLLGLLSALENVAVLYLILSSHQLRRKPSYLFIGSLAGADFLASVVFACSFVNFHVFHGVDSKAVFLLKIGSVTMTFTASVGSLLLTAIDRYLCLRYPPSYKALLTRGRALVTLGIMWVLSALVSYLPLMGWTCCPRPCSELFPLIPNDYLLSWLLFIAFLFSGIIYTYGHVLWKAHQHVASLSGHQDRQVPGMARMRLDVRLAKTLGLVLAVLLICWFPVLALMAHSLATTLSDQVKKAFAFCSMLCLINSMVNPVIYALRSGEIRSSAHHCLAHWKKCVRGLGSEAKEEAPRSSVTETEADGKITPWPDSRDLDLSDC

Sequence of CB1 cannabinoid receptor (P21554 whole entry): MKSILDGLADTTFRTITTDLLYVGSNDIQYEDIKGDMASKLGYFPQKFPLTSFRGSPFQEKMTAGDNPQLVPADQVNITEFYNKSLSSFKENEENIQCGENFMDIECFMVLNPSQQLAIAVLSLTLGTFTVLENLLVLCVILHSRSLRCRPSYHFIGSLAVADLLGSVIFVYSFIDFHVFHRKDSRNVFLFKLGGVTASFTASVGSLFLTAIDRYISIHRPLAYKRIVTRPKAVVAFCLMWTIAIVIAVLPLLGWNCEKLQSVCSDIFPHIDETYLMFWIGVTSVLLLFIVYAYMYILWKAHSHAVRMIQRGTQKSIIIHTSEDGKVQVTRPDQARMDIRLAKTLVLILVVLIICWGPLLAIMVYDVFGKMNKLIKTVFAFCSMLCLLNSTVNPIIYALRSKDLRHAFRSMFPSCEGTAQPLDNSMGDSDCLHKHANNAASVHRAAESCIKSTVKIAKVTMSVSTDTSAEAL

CCCCC/C=C\C/C=C\C/C=C\C/C=C\CCCCOC(CO)CO [Noladin ether, 2-arachidonyl glyceryl ether]
Ki (CB1 cannabinoid receptor): 21.2 nM | binding to the CB2 receptor (CB2 receptor): only weakly | effects caused in mice (mice): sedation, hypothermia, intestinal immobility, and mild antinociception
